Key:
[1] = Ocular pharmacokinetics study, topical ointment, fluorescence lifetime and intensity measurements in the lens; assay type: in vivo, Dutch-belted rabbits
Protocol: Ocular pharmacokinetic investigation of dose response via topical administration of fluorescence amyloid-binding compound was performed in Dutch-belted rabbits. The rabbits were tested each day over a 4 day period using Compound #11 amyloid-binding compound in an ointment. Two animals were dosed in the right eye with Compound #11 (0.5%) in ointment form. One animal was untreated and used as control animal. The animals were dosed at specific time points for four days and tested with SAPPHIRE II system for fluorescence intensity and lifetime measurements at the beginning and end of each day.
All animals were dosed with Compound #11 via topical ocular application and tested in the right eye. Animals were anesthetized and manually held on a platform in front of the Neuroptix SAPPHIRE II device. Gross positioning was done by the animal handler, and fine tuning of the measurement location was done by the Neuroptix SAPPHIRE II operator. Once aligned, the SAPPHIRE II operator initiated the measurement sequence. Baseline measurements were made on the animals before dosing, and then at the beginning and end of each day (Table 1).
Fluorescence lifetime and intensity measurements were performed in the eye at the beginning and at the end of each day. The measurements entailed scanning the rabbit eye axially (z-scan) to obtain inter-ocular information and a planar scan (xy-scan) to perform lifetime decay measurements in a certain region of the eye, which is the lens nucleus in this case.
Once the location of interest was identified, Time Correlation Single Photon Counting (TCSPS) was initiated while performing the xy-scan. The fluorescence lifetime images were then obtained where the decay lifetime histogram was obtained for each pixel location. The calculated decay times were color coded in the fluorescence lifetime image. Each measurement was performed three times. The frequency count of photons of specific decay rates were calculated from the decay rates frequency that of the Compound #11 signature obtained in the xy-scan and averaged over the three measurements. […] The device was specifically designed for human use but the platform was slightly modified for holding the rabbits.
Group 1: Animals were anesthetized with subcutaneous injection of Dexdomitor (0.5 mg/kg), Ketamine (5 mg/kg). A ribbon of ointment approximately ½ inch long was then applied to the lower right eyelid of each animal in the test group three times a day for four days.

[2] = Fluorescence spectra and fluorescence lifetime histogram of Compound #11; assay type: physicochemical
Excerpt: In an embodiment according to the invention, the light source may be configured to emit light of an appropriate wavelength for a peak region of a fluorescent excitation spectrum for the amyloid-binding compound bound to the amyloid protein in the eye, and the optical unit may be configured to detect light of an appropriate wavelength for a peak region of a fluorescent emission spectrum for the amyloid-binding compound bound to the amyloid protein in the eye. For example, where the amyloid-binding compound is Compound #11, the excitation spectrum has a peak of about 470 nm, and the light source may be configured to emit light within plus or minus about 20 nm of the peak of about 470 nm, such as within plus or minus 5 nm, plus or minus 10 nm, plus or minus 15 nm or plus or minus 20 nm of 470 nm. Further, the emission spectrum for Compound #11 has a peak of about 580 nm, and the optical unit may be configured to detect light within plus or minus about 20 nm of the peak of about 580 nm, such as within plus or minus 5 nm, plus or minus 10 nm, plus or minus 15 nm or plus or minus 20 nm of 580 nm. In general, there is typically a shift between the peak of the excitation spectrum and the peak of the emission spectrum of a fluorescent compound. […] For example, an emission spectrum having a peak greater than about 500 nm is advantageous for distinguishing from the natural autofluorescence of the eye. […] FIG. 12 is an emission spectrum of the fluorescent amyloid-binding compound Compound #11 when excited at 470 nm, in accordance with an embodiment of the invention. Other excitation and emission spectra that may be used will be apparent to those of skill in the art based on the foregoing.
A fluorescent histogram of the fluorescent amyloid-binding compound Compound #11 is shown in FIG. 6, obtained by a device in accordance with an embodiment of the invention. Single exponential fitting results in a lifetime decay rate of 2 nsec.

[3] = target: T1, aggregated Aβ(1-42) peptide (Homo sapiens, UniProt P05067); assay: In vitro fluorescence lifetime measurements of Compound #11 with aggregated Aβ peptide (SAPPHIRE II device); assay type: binding
T1 construct: Aggregated Aβ peptide was prepared by dissolving Aβ(1-42) in PBS pH 7.4
Protocol: (§1) In accordance with an embodiment of the invention, in vitro studies on aggregated Aβ peptides bound to Compound #11 were performed. Fluorescence lifetime measurements of Compound #11 with aggregated Aβ peptide were performed using a device in accordance with an embodiment of the invention. FIG. 8A is a fluorescence lifetime image showing Compound #11 and Compound #11 bound to aggregated Aβ peptide, with their corresponding fluorescence lifetime histograms shown in FIG. 8B, in accordance with an embodiment of the invention. By fitting the lifetime histograms, the decay rates are determined. […] An experimental description follows.
(§2) The purpose of this in vitro study was to identify the optical signature of the Compound #11 amyloid-binding compound, and to characterize its fluorescence properties when bound to aggregated Aβ peptide. […]
(§3) The Neuroptix SAPPHIRE II device (Neuroptix Corporation, Acton, Mass., U.S.A.) is a purpose built device for clinical studies in humans, which was adapted for in vitro measurements for this experiment. It employs a confocal scanning mechanism combined with fluorescence lifetime spectroscopy that allows differentiation of fluorophores. The device allows 1) scanning of the optical beam to specific locations in the anterior segments of the eye, such as the supranucleus and 2) identification of fluorescent fluorophores based on fluorescence lifetime measurements.
(§4) Aggregated Aβ peptide was prepared by dissolving Aβ(1-42) in PBS pH 7.4 to a final concentration of 100 μM. […] The solution was transferred to 5 mL vial and the fluorescence measurements were performed at 25° C.
(§5) The sample consisting of Compound #11 was placed in front of the Neuroptix SAPPHIRE II Device. Once the location of the scan in the sample was determined, a raster scan was performed to obtain fluorescence lifetime measurements. […] The shading that makes up most of the image background represents a lifetime decay of 1.4 nsec, which corresponds to that of the fluorescence amyloid-binding compound. […]

[4] = tested on: aggregated Aβ(1-42) peptide; assay: as above; assay type: binding; details: unbound; 4 μM Compound #11, PBS, 25° C.
Protocol: as §1, §2, §3, §4, §5

[5] = target: aggregated beta-amyloid (Aβ) peptide (Homo sapiens, UniProt P05067); details: cited from earlier work
aggregated beta-amyloid (Aβ) peptide, sequence (P05067 672-713 limits assumed): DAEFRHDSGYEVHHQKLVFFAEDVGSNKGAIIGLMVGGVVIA

T1 sequence (P05067 672-713): as the sequence (P05067 672-713 limits assumed) above

In the case of `COCCOCCOCCOC(=O)/C(C#N)=C/c1ccc2cc(N3CCCCC3)ccc2c1` [Compound #11, (E)-2-(2-(2-methoxyethoxy)ethoxy)ethyl-2-cyano-3-(6-(piperidin-1-yl)naphthalen-2-yl)acrylate], the “fluorescence signal after repetitive topical administration” value ([1]; 5 mg/g in ointment form, three times a day for four days) is reported as “Detectable fluorescence signal”, the “decay rate in lifetime image of the lens (xy-scan)” value ([1]; animal 1003, end of fourth day) is reported as 2 nsec and the “change of fluorescence in the lens nucleus over four days” value ([1]; measured at beginning and end of each day, 4 days, rabbits 1002 and 1003) is reported as “increase of Compound #11 fluorescence”. For the same compound, the “time of stay in the lens nucleus” value ([1]; repetitive topical administration) was “at least 12 hours”, the “accumulation in the lens nucleus” value ([1]; repetitive topical administration, after several hours of application) was “tended to accumulate in the nucleus” and the “penetration of the cornea and detection in the lens” value ([1]; topical ocular, rabbit eyes) was “penetrate the cornea and be detected by the device in the lens”. For the same compound, the excitation spectrum peak [2] was “about 470 nm”, the emission spectrum peak ([2]; excited at 470 nm) was “about 580 nm” and the lifetime decay rate ([2]; single exponential fitting of fluorescent histogram (FIG. 6)) was 2 nsec. For the same compound, the “difference in fluorescence lifetime, bound vs unbound” value ([3]; Compound #11 vs Compound #11 bound to aggregated Aβ peptide) was 0.85 nsec, the “fluorescence lifetime decay (time decay rate) of compound bound to aggregated Aβ peptide” value ([3]; bound to aggregated Aβ(1-42) 5 μM, 4 μM Compound #11, 25° C.) was 2.25 nsec and the “fluorescence lifetime decay (time decay rate) of unbound compound” value [4] was 1.4 nsec. The “binding to aggregated beta-amyloid (Aβ) peptide” value [5] was “has been shown to bind”.
